According to US5714499A, “3-amino-2-oxo-1-piperidineacetic derivatives containing an arginine mimic as enzyme inhibitors” (Corvas International, Inc., priority 1994, dated 1998):
Where two headings read alike, the source gives them in different places.

How the values were obtained:
[1] = system: FeCl3-induced occlusive thrombus in rat carotid artery; assay: Rat model of FeCl3-induced platelet-dependent arterial thrombosis; format: in vivo; conditions: for ED50: Rattus norvegicus, read-out: ED50 for thrombus prevention in the FeCl3 model of arterial thrombosis; for Incidence of Occlusion: single intravenous bolus 5 minutes before FeCl3, n = 6, 60 minutes, saline 6/6
From the text: Kurz, K. D., Main, B. W., and Sandusky, G. E., Thromb. […] In this model a platelet-rich, occlusive thrombus is formed in a segment of the rat carotid artery treated locally with a fresh solution of FeCl3 absorbed to a piece of filter paper. The FeCl3 is thought to diffuse into the treated segment of artery and causes de-endothelialization of the affected vessel surface. […] The effect of a test compound on the incidence of occlusive thrombus formation following the application of the FeCl3 is monitored by ultrasonic flowtometry and is used as the primary end point. The use of flowtometry to measure carotid artery blood flow, is a modification of the original procedure in which thermal detection of clot formation was employed. Kurz, K. D., Main, B. W., and Sandusky, G. E., Thromb.
The animals were prepared, anesthetized with Nembutal followed by the insertion of catheters for blood pressure monitoring, drug and anesthesia delivery. The left carotid artery was isolated by making a midline cervical incision followed by blunt dissection and spreading techniques to separate a 2 cm segment of the vessel from the carotid sheath. A silk suture is inserted under the proximal and distal ends of the isolated vessel to provide clearance for the placement of a ultrasonic flow probe (Transonic) around the proximal end of the vessel. The probe is then secured with a stationary arm.
Following surgery the animals were randomized in either a control (saline) or treatment group with test compound (Isomer B) with at least 6 animals per group per dose. The test compound was administered as a single intravenous bolus at the doses outlined in Table 3 after placement of the flow probe and 5 minutes prior to the thrombogenic stimulus. […] Blood pressure, blood flow, heart rate, and respiration were monitored for 60 minutes.
The incidence of occlusion (defined as the attainment of zero blood flow) was recorded as the primary end point and as a measure of the antithrombotic efficacy of Isomer B.

thrombin = conditions: literature; cited from earlier work
[2] = literature; cited from earlier work
[3] = literature; cited from earlier work; remark: listed apart in the source
[4] = system: human plasma clotting (APTT); assay: Ex vivo anticoagulant effect, APTT in citrated human plasma
From the text: (§1) The control clotting times (0 inhibitor) for rat and human plasma were 19 seconds and 29 seconds, respectively. The concentration of BzlSO2 -norVal(cyclo)-Gly-Ala(3-guanPip)al which caused a doubling of the control clotting time in rat and human plasma was 12.7 micromolar and 9.1 micromolar, respectively. The data is the mean of two independent determinations.
(§2) Fresh frozen citrated pooled normal human plasma was obtained from George King Biomedical, Overland Park, Kans. Pooled normal rat plasma was prepared from citrated whole blood collected from anesthetized rats using standard procedures. The plasma was flash frozen and stored at -80° C. until use. Measurements APTT was made using the Coag-A-Mate RA4 automated coagulometer (General Diagnostics, Organon Technica, Oklahoma City, Okla.) using the Automated APTT reagent (Organon Technica, Durham, N.C.) as the initiator of clotting according to the manufacturers instructions. The assay was conducted by making a series of dilution's of Isomer B in rapidly thawed plasma followed by adding 200 microliters to the wells of the assay carousel.

[5] = system: rat plasma clotting (APTT); assay: Ex vivo anticoagulant effect, APTT in citrated rat plasma
From the text: as §1, §2

human alpha-thrombin [6] = molecular target: T1, human alpha-thrombin (Homo sapiens, UniProt P00734); conditions: Table 4, human alpha-thrombin
Method: Enzyme activity was determined using the chromogenic substrate Pefachrome t-PA (CH3 SO2 -D-hexahydrotyrosine-glycyl-L-Arginine-p-nitroanilide), obtained from Pentapharm Ltd. The substrate was reconstituted in deionized water prior to use. Purified human alpha-thrombin (3000U/mg specific activity) was obtained from Enzyme Research Laboratories, Inc. The buffer used for all assays was HBSA (10 mM HEPES, pH 7.5, 150 mM sodium chloride, 0.1%, bovine serum albumin).
Velocities of chromogenic substrate hydrolysis which occurred over 40 min was measured by the change in absorbance at 405 nm using a Thermo Max® Kinetic Microplate Reader. […] The extent of substrate hydrolysis was less than 5% over the course of this assay.

plasmin = plasmin (Homo sapiens, UniProt P00747); assay: Plasmin assay (specificity determination); format: biochemical; conditions: maximal concentration 25,000 nM, mean of at least two independent experiments
plasmin, sequence (P00747 581-810 limits assumed): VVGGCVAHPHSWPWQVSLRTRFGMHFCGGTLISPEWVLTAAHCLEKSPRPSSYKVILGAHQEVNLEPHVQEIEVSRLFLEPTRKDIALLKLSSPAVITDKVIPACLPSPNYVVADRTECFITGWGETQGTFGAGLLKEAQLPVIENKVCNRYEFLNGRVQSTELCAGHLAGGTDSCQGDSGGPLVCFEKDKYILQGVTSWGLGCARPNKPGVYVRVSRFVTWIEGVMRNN
plasmin, sequence (P00747 97-580 limits assumed): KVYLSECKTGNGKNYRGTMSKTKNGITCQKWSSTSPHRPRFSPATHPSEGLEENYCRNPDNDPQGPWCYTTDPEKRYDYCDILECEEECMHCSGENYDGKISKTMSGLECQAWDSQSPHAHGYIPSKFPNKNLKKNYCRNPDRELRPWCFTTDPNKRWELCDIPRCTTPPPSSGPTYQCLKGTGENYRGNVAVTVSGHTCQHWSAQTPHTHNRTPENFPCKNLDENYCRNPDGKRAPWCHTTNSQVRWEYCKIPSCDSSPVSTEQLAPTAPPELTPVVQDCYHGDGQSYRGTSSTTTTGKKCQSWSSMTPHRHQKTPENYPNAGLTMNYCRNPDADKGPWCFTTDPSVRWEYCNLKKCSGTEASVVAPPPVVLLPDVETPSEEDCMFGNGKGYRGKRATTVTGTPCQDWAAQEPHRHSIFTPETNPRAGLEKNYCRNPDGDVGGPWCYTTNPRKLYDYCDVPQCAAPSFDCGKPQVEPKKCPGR
Method: Plasmin catalytic activity was determined using the chromogenic substrate, S-2251 [D-valyl-L-leucyl-L-lysine-p-nitroanilide], which was obtained from Kabi Diagnostica.

human alpha-thrombin [7] = molecular target: T1, human alpha-thrombin; assay: biochemical
Method: The buffer used for all assays was HBSA (10 mM HEPES, pH 7.5, 150 mM sodium chloride, 0.1% bovine serum albumin). […] Following a 30-minute incubation at ambient temperature, 50 microliters of the substrate at the concentrations specified below, was added to the wells yielding a final total volume of 200 microliters. The initial velocity of chromogenic substrate hydrolysis was measured by the change in absorbance at 405nm using a Thermo Max® Kinetic Microplate Reader over a 5 minute period in which less than 5% of the added substrate was utilized.
Thrombin catalytic activity was determined using the chromogenic substrate Pefachrome t-PA (CH3 SO2 -D-hexahydrotyrosine-glycyl-L-arginine-p-nitroanilide, obtained from Pentapharm Ltd.). The substrate was made up in deionized water followed by dilution in HBSA prior to the assay in which the final concentration was 300 micromolar (about 5-times Km). Purified human alpha-thrombin was obtained from Enzyme Research Laboratories, Inc. The enzyme was diluted into HBSA prior to the assay in which the final concentration was 0.25 nM.

`CC1CNc2c(cccc2S(=O)(=O)N[C@@H](CCCNC(=N)N)C(=O)N2CC[C@@H](C)C[C@@H]2C(=O)O)C1` (stereo partly drawn) [Argatroban, 2R,4R-4-methyl-1-[N-2-(3-methyl-1,2,3,4-tetrahydro-8-quinolinesulfonyl)-L-argininal]-2-piperdinecarboxylic acid, reference compound] showed an ED50 ([1]; dose that prevents complete thrombotic occlusion in 50% of animals tested) of 3.8 mg/kg.
In the case of `CS(=O)(=O)O.CS(=O)(=O)O.N=C(N)Nc1ccc(C(=O)Oc2ccc3cc(C(=N)N)ccc3c2)cc1` [FUT 175, 6-amidino-2-naphthyl-4-guanidinobenzoate dimethanesulfonate], the “selectivity of thrombin inhibition” value (thrombin) is given as “non-selective”.
For `N=C(N)c1ccc(CC(=O)C(=O)O)cc1` [APPA, 4-amidinophenylpyruvic acid], the “selectivity of thrombin inhibition” value (thrombin) is listed as “non-selective, inhibiting trypsin, plasmin and kallikrein”, the toxicity [2] is listed as “low toxicity” and the pharmacokinetics [3] is listed as “favourable pharmacokinetics”.
With `N=C(N)N1CCCC(C[C@@H](C=O)NC(=O)CN2CCC[C@H](NS(=O)(=O)Cc3ccccc3)C2=O)C1` (single isomer, unassigned) [Isomer B] the “concentration which caused a doubling of the control clotting time (APTT)” value ([4]; citrated human plasma, control clotting time 29 seconds, mean of two independent determinations) was 9.1 µM, the “prolongation of the APTT” value ([4]; human plasma) was “prolonged the APTT in a dose dependent manner” and the “prolongation of the APTT” value [5] was “prolonged the APTT in a dose dependent manner”. For the same molecule, the Ki (human alpha-thrombin [6]) was 0.318 nM, the “Incidence of Occlusion” value ([1]; 0.3 mg/kg) was 6/6 and the “Incidence of Occlusion” value ([1]; 1.0 mg/kg) was 4/6. For the same molecule, the “Incidence of Occlusion” value ([1]; 3.0 mg/kg, p ≤ 0.05 from saline control by Fishers test) was 0/6, the ED50 [1] was 1.4 mg/kg and the IC50 (plasmin) was > 25000 nM. It also gave an IC50 (human alpha-thrombin [7]) of 0.9 nM.
